# PubChem BioAssay (NCI)
#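 Values below derive from 48-hour exposures of cells grown in 96-well plates, with endpoints linearly interpolated between the two concentrations bracketing the appropriate inhibition level. TGI marks complete inhibition of growth.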
# How the values were obtained:
# Experiment in all cases: inhibition of tumour cell growth, NCI panel, 48 h
# SK-OV-3 ovarian = system: SK-OV-3 ovarian
# SN12C renal = system: SN12C renal
# MALME-3M melanoma = system: MALME-3M melanoma
# SF-539 CNS = system: SF-539 CNS
# SR leukemia = system: SR leukemia
# M14 melanoma = system: M14 melanoma
# A498 renal = system: A498 renal
# CAKI-1 renal = system: CAKI-1 renal
# SNB-75 CNS = system: SNB-75 CNS
# HOP-18 NSCLC = system: HOP-18 NSCLC
# A549 NSCLC = system: A549 NSCLC
# OVCAR-5 ovarian = system: OVCAR-5 ovarian
# LXFL 529 NSCLC = system: LXFL 529 NSCLC
# LOX IMVI melanoma = system: LOX IMVI melanoma
# CCRF-CEM leukemia = system: CCRF-CEM leukemia
# NCI-H226 lung = system: NCI-H226 lung
# UACC-257 melanoma = system: UACC-257 melanoma
# M19-MEL melanoma = system: M19-MEL melanoma
# K-562 leukemia = system: K-562 leukemia
# HOP-62 NSCLC = system: HOP-62 NSCLC
# MOLT-4 leukemia = system: MOLT-4 leukemia
# 786-0 renal = system: 786-0 renal
# KM12 colon = system: KM12 colon
# HT29 colon = system: HT29 colon
# RXF-631 renal = system: RXF-631 renal
# SK-MEL-2 melanoma = system: SK-MEL-2 melanoma
# SNB-78 CNS = system: SNB-78 CNS
# U251 CNS = system: U251 CNS
# DMS 114 small cell lung = system: DMS 114 small cell lung
# SK-MEL-28 melanoma = system: SK-MEL-28 melanoma
# IGROV1 ovarian = system: IGROV1 ovarian
# EKVX NSCLC = system: EKVX NSCLC
# OVCAR-8 ovarian = system: OVCAR-8 ovarian
# DLD-1 colon = system: DLD-1 colon
# TK-10 renal = system: TK-10 renal
# HL-60(TB) leukemia = system: HL-60(TB) leukemia
# SK-MEL-5 melanoma = system: SK-MEL-5 melanoma
# HCT-15 colon = system: HCT-15 colon
# SW-620 colon = system: SW-620 colon
# HOP-92 NSCLC = system: HOP-92 NSCLC
# HCT-116 colon = system: HCT-116 colon
# NCI-H23 lung = system: NCI-H23 lung
# HCC-2998 colon = system: HCC-2998 colon
# RPMI-8226 leukemia = system: RPMI-8226 leukemia
# SF-268 CNS = system: SF-268 CNS
# ACHN renal = system: ACHN renal
# NCI-H522 lung = system: NCI-H522 lung
# KM20L2 colon = system: KM20L2 colon
# OVCAR-4 ovarian = system: OVCAR-4 ovarian
# UACC-62 melanoma = system: UACC-62 melanoma
# NCI-H460 lung = system: NCI-H460 lung
# UO-31 renal = system: UO-31 renal
# OVCAR-3 ovarian = system: OVCAR-3 ovarian
# SF-295 CNS = system: SF-295 CNS
# DMS 273 small cell lung = system: DMS 273 small cell lung
# SNB-19 CNS = system: SNB-19 CNS
# COLO 205 colon = system: COLO 205 colon
smiles,measurement,setting,value
O=S1(=O)CCCS(=O)(=O)C(c2ccccc2)=C1c1ccccc1,TGI,SK-OV-3 ovarian,> 100 µM
same,TGI,SN12C renal,> 100 µM
same,TGI,MALME-3M melanoma,> 100 µM
same,TGI,SF-539 CNS,> 100 µM
same,TGI,SR leukemia,> 100 µM
same,TGI,M14 melanoma,> 100 µM
same,TGI,A498 renal,> 100 µM
same,TGI,CAKI-1 renal,> 100 µM
same,TGI,SNB-75 CNS,> 100 µM
same,TGI,HOP-18 NSCLC,> 100 µM
same,TGI,A549 NSCLC,> 100 µM
same,TGI,OVCAR-5 ovarian,> 100 µM
same,TGI,LXFL 529 NSCLC,> 100 µM
same,TGI,LOX IMVI melanoma,> 100 µM
same,TGI,CCRF-CEM leukemia,> 100 µM
same,TGI,NCI-H226 lung,> 100 µM
same,TGI,UACC-257 melanoma,> 100 µM
same,TGI,M19-MEL melanoma,> 100 µM
same,TGI,K-562 leukemia,> 100 µM
same,TGI,HOP-62 NSCLC,96.8 µM
same,TGI,MOLT-4 leukemia,> 100 µM
same,TGI,786-0 renal,> 100 µM
same,TGI,KM12 colon,79 µM
same,TGI,HT29 colon,> 100 µM
same,TGI,RXF-631 renal,> 100 µM
same,TGI,SK-MEL-2 melanoma,> 100 µM
same,TGI,SNB-78 CNS,> 100 µM
same,TGI,U251 CNS,> 100 µM
same,TGI,DMS 114 small cell lung,> 100 µM
same,TGI,SK-MEL-28 melanoma,> 100 µM
same,TGI,IGROV1 ovarian,> 100 µM
same,TGI,EKVX NSCLC,> 100 µM
same,TGI,OVCAR-8 ovarian,> 100 µM
same,TGI,DLD-1 colon,> 100 µM
same,TGI,TK-10 renal,> 100 µM
same,TGI,HL-60(TB) leukemia,44.6 µM
same,TGI,SK-MEL-5 melanoma,> 100 µM
same,TGI,HCT-15 colon,> 100 µM
same,TGI,SW-620 colon,> 100 µM
same,TGI,HOP-92 NSCLC,85.3 µM
same,TGI,HCT-116 colon,> 100 µM
same,TGI,NCI-H23 lung,> 100 µM
same,TGI,HCC-2998 colon,32.4 µM
same,TGI,RPMI-8226 leukemia,> 100 µM
same,TGI,SF-268 CNS,> 100 µM
same,TGI,ACHN renal,> 100 µM
same,TGI,NCI-H522 lung,89.9 µM
same,TGI,KM20L2 colon,72.1 µM
same,TGI,OVCAR-4 ovarian,> 100 µM
same,TGI,UACC-62 melanoma,> 100 µM
same,TGI,NCI-H460 lung,> 100 µM
same,TGI,UO-31 renal,> 100 µM
same,TGI,OVCAR-3 ovarian,> 100 µM
C[C@@H]1C2=CC[C@@]3(C)C(CCC3[C@H](C)[C@H]3C[C@@]4(C)O[C@@](c5cccnc5)(O3)OC4(C)C)[C@@H]2C2OC2[C@@]12CCC(=O)O2 (stereo not given in full),TGI,SK-OV-3 ovarian,> 100 µM
same,TGI,SN12C renal,> 100 µM
same,TGI,MALME-3M melanoma,92.7 µM
same,TGI,SF-539 CNS,> 100 µM
same,TGI,SR leukemia,> 100 µM
same,TGI,M14 melanoma,60.6 µM
same,TGI,A498 renal,> 100 µM
same,TGI,CAKI-1 renal,79.6 µM
same,TGI,SNB-75 CNS,> 100 µM
same,TGI,SF-295 CNS,> 100 µM
same,TGI,DMS 273 small cell lung,> 100 µM
same,TGI,HOP-18 NSCLC,87.1 µM
same,TGI,A549 NSCLC,> 100 µM
same,TGI,OVCAR-5 ovarian,> 100 µM
same,TGI,LXFL 529 NSCLC,> 100 µM
same,TGI,LOX IMVI melanoma,> 100 µM
same,TGI,CCRF-CEM leukemia,> 100 µM
same,TGI,UACC-257 melanoma,> 100 µM
same,TGI,SNB-19 CNS,> 100 µM
same,TGI,M19-MEL melanoma,> 100 µM
same,TGI,K-562 leukemia,> 100 µM
same,TGI,HOP-62 NSCLC,> 100 µM
same,TGI,786-0 renal,> 100 µM
same,TGI,KM12 colon,> 100 µM
same,TGI,HT29 colon,> 100 µM
same,TGI,SK-MEL-2 melanoma,58.6 µM
same,TGI,SNB-78 CNS,> 100 µM
same,TGI,U251 CNS,> 100 µM
same,TGI,DMS 114 small cell lung,> 100 µM
same,TGI,SK-MEL-28 melanoma,> 100 µM
same,TGI,IGROV1 ovarian,> 100 µM
same,TGI,OVCAR-8 ovarian,> 100 µM
same,TGI,DLD-1 colon,> 100 µM
same,TGI,TK-10 renal,> 100 µM
same,TGI,HL-60(TB) leukemia,41.4 µM
same,TGI,SK-MEL-5 melanoma,78.1 µM
same,TGI,HCT-15 colon,> 100 µM
same,TGI,SW-620 colon,> 100 µM
same,TGI,HOP-92 NSCLC,76.9 µM
same,TGI,HCT-116 colon,> 100 µM
same,TGI,NCI-H23 lung,> 100 µM
same,TGI,HCC-2998 colon,> 100 µM
same,TGI,RPMI-8226 leukemia,> 100 µM
same,TGI,SF-268 CNS,> 100 µM
same,TGI,ACHN renal,> 100 µM
same,TGI,NCI-H522 lung,> 100 µM
same,TGI,KM20L2 colon,96.2 µM
same,TGI,COLO 205 colon,77.2 µM
same,TGI,UACC-62 melanoma,> 100 µM
same,TGI,NCI-H460 lung,> 100 µM
same,TGI,UO-31 renal,97.1 µM
same,TGI,OVCAR-3 ovarian,85.9 µM
